According to patent publication US20050014780A1, “Process for preparing 5-sulfonamido-8-hydroxy-1,6-naphthyridine-7-carboxamides” (priority 2001, published 2005):

How the values were obtained:
[1] = biological target: recombinant integrase (HIV integrase) (Human immunodeficiency virus type 1 group M subtype B, UniProt P04585)
Text: The present invention includes the preparation of naphthyridine carboxamides of Formula (VIII) by the process set forth above in the Summary of the Invention. […] The strand transfer assay is described in Example 193 of WO 02/30930.

[2] = oral absorption and pharmacokinetics in animal models; format: in vivo; conditions: compared to Compound 15 per se

SMILES: O=C(NCc1ccc(F)cc1)c1nc(N2CCCCS2(=O)=O)c2cccnc2c1O [Compound 15, 5-(1,1-dioxido-1,2-thiazinan-2-yl)-N-(4-fluorobenzyl)-8-hydroxy-1,6-naphthyridine-7-carboxamide]
- HIV integrase inhibition (in words) [1]: potent HIV integrase inhibitor

SMILES: O=C(NCc1ccc(F)cc1)c1nc(N2CCCCS2(=O)=O)c2cccnc2c1[O-].[Na+] [Na salt of Compound 15, Sodium salt of 5-(1,1-Dioxido-1,2-thiazinan-2-yl)-N-(4-fluorobenzyl)-8-hydroxy-1,6-naphthyridine-7-carboxamide]
- oral absorption [2]: superior oral absorption
- pharmacokinetics [2]: improved pharmacokinetics
